From article PMC7115377 (European Journal of Medicinal Chemistry, 2018)
Read-outs that look alike come from different tables or passages of the source.

Key:
HeLa cells = settings: microscopy
influenza B/Ned/537/05 [1] = test: Influenza B antiviral assay in MDCK cells; assay type: cell-based; settings: Influenza B virus, read-out: mean EC50 anti-influenza B activity
influenza B/Ned/537/05 [2] = test: Influenza B antiviral assay in MDCK cells; assay type: cell-based; settings: Influenza B virus, read-out: EC50 Influenza B, microscopic method
[3] = test system: Respiratory syncytial virus (RSV; strain Long); test: microbe, parasite or virus in culture; assay type: cell-based; settings: human respiratory syncytial virus, HeLa, read-out: EC50 RSV
influenza B virus = settings: read-out: EC50 influenza B; previous series; ref [21]; cited from earlier work

SMILES	Cytotoxicity MCC (HeLa cells)	further results
NC1=NC2(CCNCC2)N(c2cccc(Cl)c2)C(N)=N1 [Compound 1, 1-(3-Chlorophenyl)-2,4-diamino-1,3,5,9-tetraazaspiro[5.5]undeca-2,4-diene]	>100 µM	–
CC(C)(C)OC(=O)N1CCC2(CC1)N=C(N)N=C(N)N2c1cccc(Cl)c1 [Compound 2, Tert-butyl 1-(3-Chlorophenyl)-2,4-diamino-1,3,5,9-tetraazaspiro[5.5]undeca-2,4-diene-9-carboxylate]	>100 µM	–
NC1=NC2(CCN(C(=O)C3CCC3)CC2)N(c2cccc(Cl)c2)C(N)=N1 [Compound 3, 9-Cyclobutylcarbonyl-1-(3-chlorophenyl)-2,4-diamino-1,3,5,9-tetraazaspiro[5.5]undeca-2,4-diene]	>100 µM	–
Cc1ccc(C(=O)N2CCC3(CC2)N=C(N)N=C(N)N3c2cccc(Cl)c2)cc1 [Compound 4, 1-(3-Chlorophenyl)-2,4-diamino-9-(p-tolylcarbonyl)-1,3,5,9-tetraazaspiro[5.5]undeca-2,4-diene]	≥100 µM	EC50 (influenza B/Ned/537/05 [1]): ~200 nM; CC50 fold higher than corresponding MCC (MDCK cells): 22 fold
NC1=NC2(CCN(C(=O)c3ccc4ccccc4c3)CC2)N(c2cccc(Cl)c2)C(N)=N1 [Compound 5, 1-(3-Chlorophenyl)-2,4-diamino-9-[(naphthalen-2-yl)carbonyl]-1,3,5,9-tetraazaspiro-[5.5]undeca-2,4-diene]	≥100 µM	–
NC1=NC2(CCN(C(=O)Nc3ccc(F)cc3)CC2)N(c2cccc(Cl)c2)C(N)=N1 [Compound 6, 1-(3-Chlorophenyl)-2,4-diamino-9-[N-(4-fluorophenyl)carbamoyl]-1,3,5,9-tetraazaspiro-[5.5]undeca −2,4-diene]	≥100 µM	CC50 fold higher than corresponding MCC (MDCK cells): 319 fold; EC50 (influenza B/Ned/537/05 [2]): 350 nM
COc1cccc(N2C(N)=NC(N)=NC23CCNCC3)c1 [Compound 7, 2,4-Diamino-1-(3-methoxyphenyl)-1,3,5,9-tetraazaspiro[5.5]undeca-2,4-diene]	>100 µM	–
COc1cccc(N2C(N)=NC(N)=NC23CCN(C(=O)OC(C)(C)C)CC3)c1 [Compound 8, Tert-butyl 2,4-diamino-1-(3-methoxyphenyl)-1,3,5,9-tetraazaspiro[5.5]undeca-2,4-diene-9-carboxylate]	>100 µM	–
CCCCC(=O)N1CCC2(CC1)N=C(N)N=C(N)N2c1cccc(OC)c1 [Compound 9, 2,4-Diamino-1-(3-methoxyphenyl)-9-(1-oxopent-1-yl)-1,3,5,9-tetraazaspiro[5.5]undeca-2,4-diene]	>100 µM	–
COc1cccc(N2C(N)=NC(N)=NC23CCN(C(=O)c2ccc(C(F)(F)F)cc2C)CC3)c1 [Compound 10, 2,4-Diamino-1-(3-methoxyphenyl)-9-[(2-methyl-4-(trifluoromethyl)phenyl)carbonyl]-1,3,5,9-tetraazaspiro[5.5]undeca-2,4-diene]	>100 µM	–
CC(C)(C)OC(=O)N1CCC2(CC1)N=C(N)N=C(N)N2Cc1cccc(Cl)c1 [Compound 11, Tert-butyl 1-(3-Chlorobenzyl)-2,4-diamino-1,3,5,9-tetraazaspiro[5.5]undeca-2,4-diene-9-carboxylate]	>100 µM	–
COCCN1C(N)=NC(N)=NC12CCN(C(=O)NC1CCC(C)CC1)CC2 (centres unmarked) [Compound 18, 2,4-Diamino-9-[(4-methylcyclohexyl)carbamoyl]-1-(2-methoxyethyl)-1,3,5,9-tetraazaspiro-[5.5]undeca-2,4-diene]	>100 µM	–
CCS(=O)(=O)N1CCC2(CC1)N=C(N)N=C(N)N2CCOC [Compound 20, 2,4-Diamino-9-(ethylsulfonyl)-1-(2-methoxyethyl)-1,3,5,9-tetraazaspiro[5.5]undeca-2,4-diene]	>100 µM	–
COCCN1C(N)=NC(N)=NC12CCN(S(=O)(=O)c1ccccc1)CC2 [Compound 21, 2,4-Diamino-9-(phenylsulfonyl)-1-(2-methoxyethyl)-1,3,5,9-tetraazaspiro[5.5]undeca-2,4-diene]	>100 µM	–
NC(=O)c1ncn([C@@H]2O[C@H](CO)[C@@H](O)[C@H]2O)n1 [Ribavirin]	–	EC50 [3]: 5800 nM
CC(=O)N[C@H]1[C@H]([C@H](O)[C@H](O)CO)OC(C(=O)O)=C[C@@H]1NC(=N)N [Zanamivir]	–	EC50 (influenza B virus): 60 nM
